Experiments:
DIGSA = test: Herbicidal pre-emergence action, section C (Table C5); type: in vivo, Digitaria sanguinalis; details: application rate 320 g/ha; visual grading after ca. 3 weeks
GLXMA [1] = test: Post-emergence effects on crop plants (Table F4); type: in vivo, Glycine max; details: application rate 320 g/ha, crop plant GLXMA
Description: (§1) 2 to 3 weeks after sowing, the test plants were sprayed in the single-leaf stage.

MATIN [2] = test: Herbicidal pre-emergence action, section C (Table C8); type: in vivo, Matricaria inodora; details: application rate 320 g/ha; visual grading after ca. 3 weeks
AMARE [3] = test: Herbicidal pre-emergence action, section C (Table C3); type: in vivo, Amaranthus retroflexus; details: application rate 320 g/ha; visual grading after ca. 3 weeks
BRSNW [4] = test: Post-emergence effects on crop plants (Table F5); type: in vivo, Brassica napus; details: application rate 320 g/ha, crop plant BRSNW
Description: as §1

ORYZA [5] = test: Post-emergence effects on crop plants (Table F3); type: in vivo, Oryza sativa; details: application rate 320 g/ha, crop plant ORYZA
Description: as §1

ALOMY [6] = test: Herbicidal pre-emergence action, section C (Table C2); type: in vivo, Alopecurus myosuroides; details: application rate 320 g/ha; visual grading after ca. 3 weeks
VIOTR = test: Herbicidal pre-emergence action, section C (Table C12); type: in vivo, Viola tricolor; details: application rate 320 g/ha; visual grading after ca. 3 weeks
TRZAS [7] = test: Post-emergence effects on crop plants (Table F2); type: in vivo, Triticum aestivum; details: application rate 320 g/ha, crop plant TRZAS
Description: as §1

VERPE [8] = test: Herbicidal pre-emergence action, section C (Table C11); type: in vivo, Veronica persica; details: application rate 320 g/ha; visual grading after ca. 3 weeks
ABUTH [9] = test: Herbicidal pre-emergence action, section C (Table C1); type: in vivo, Abutilon theophrasti; details: application rate 320 g/ha; visual grading after ca. 3 weeks
ZEAMX [10] = test: Post-emergence effects on crop plants (Table F1); type: in vivo, Zea mays; details: application rate 320 g/ha, crop plant ZEAMX
Description: as §1

LOLRI [11] = test: Herbicidal pre-emergence action (Table A3); type: in vivo, Lolium rigidum; details: visual grading after ca. 3 weeks
In short: (§2)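 Pots: sandy loam. Sowing: one mono- and one dicot weed species together per pot. Seeds covered with soil.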

POAAN [12] = test: Herbicidal post-emergence action (Table B7); type: in vivo, Poa annua
In short: (§3)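 Plants grown from seed in a greenhouse are treated at the one-leaf stage, two to three weeks after sowing. They then stay under optimum growth conditions for about three weeks before herbicidal activity is scored visually on a 0–100% scale against untreated controls.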

ECHCG [13] = test: Herbicidal pre-emergence action, section C (Table C6); type: in vivo, Echinochloa crus-galli; details: application rate 320 g/ha; visual grading after ca. 3 weeks
ECHCG [14] = test: Herbicidal pre-emergence action (Table A2); type: in vivo, Echinochloa crus-galli; details: application rate 320 g/ha; visual grading after ca. 3 weeks
In short: as §2

VERPE [15] = test: Herbicidal post-emergence action (Table B10); type: in vivo, Veronica persica; details: application rate 1280 g/ha
In short: as §3

SETVI [16] = test: Herbicidal pre-emergence action (Table A5); type: in vivo, Setaria viridis; details: visual grading after ca. 3 weeks
In short: as §2

SETVI [17] = test: Herbicidal pre-emergence action, section C (Table C10); type: in vivo, Setaria viridis; details: application rate 80 g/ha; visual grading after ca. 3 weeks
BRSNW [18] = test: Pre-emergence effects on crop plants (Table D5); type: in vivo, Brassica napus; details: crop plant, visual grading after ca. 3 weeks
ZEAMX [19] = test: Pre-emergence effects on crop plants (Table D1); type: in vivo, Zea mays; details: crop plant; application rate 80 g/ha; visual grading after ca. 3 weeks
ECHCG [20] = test: Herbicidal post-emergence action, section E (Table E5); type: in vivo, Echinochloa crus-galli; details: application rate 320 g/ha; assessed visually after ca. 3 weeks
Description: as §1

TRZAS [21] = test: Pre-emergence effects on crop plants (Table D2); type: in vivo, Triticum aestivum; details: crop plant; application rate 80 g/ha; visual grading after ca. 3 weeks
GLXMA [22] = test: Pre-emergence effects on crop plants (Table D4); type: in vivo, Glycine max; details: crop plant; application rate 80 g/ha; visual grading after ca. 3 weeks
Description: Seeds of mono- and dicotyledonous weed plants and crop plants were sown, in plastic or organic planting pots, in sandy loam and covered with soil. The compounds according to the invention, formulated in the form of wettable powders (WP) or as emulsifiable concentrates (EC), were applied to the surface of the covering soil as aqueous suspension or emulsion, with the addition of 0.5% of an additive, at an application rate of 600 1 of water/ha (converted).
Following treatment, the pots were placed in a greenhouse and kept under optimum growth conditions for the test plants.

ECHCG [23] = test: Herbicidal post-emergence action (Table B3); type: in vivo, Echinochloa crus-galli; details: application rate 1280 g/ha; rated visually after about 3 weeks
In short: as §3

AMARE [24] = test: Herbicidal pre-emergence action (Table A8); type: in vivo, Amaranthus retroflexus; details: application rate 320 g/ha; visual grading after ca. 3 weeks vs untreated controls (100% = plants have died off, 0% = as control plants)
In short: as §2

ABUTH [25] = test: Herbicidal pre-emergence action (Table A1); type: in vivo, Abutilon theophrasti; details: application rate 1280 g/ha; visual grading after ca. 3 weeks vs untreated controls (100% = plants have died off, 0% = as control plants)
In short: as §2

ALOMY [26] = test: Herbicidal pre-emergence action (Table A9); type: in vivo, Alopecurus myosuroides; details: application rate 1280 g/ha; visual grading after ca. 3 weeks
In short: as §2

ALOMY [27] = test: Herbicidal post-emergence action, section E (Table E2); type: in vivo, Alopecurus myosuroides; details: application rate 320 g/ha; assessed visually after ca. 3 weeks
Description: as §1

LOLRI [28] = test: Herbicidal pre-emergence action, section C (Table C7); type: in vivo, Lolium rigidum; details: application rate 80 g/ha; visual grading after ca. 3 weeks
AMARE [29] = test: Herbicidal post-emergence action (Table B11); type: in vivo, Amaranthus retroflexus; details: application rate 1280 g/ha
In short: as §3

KCHSC [30] = test: Herbicidal post-emergence action (Table B4); type: in vivo, Kochia scoparia; details: application rate 1280 g/ha; rated visually after about 3 weeks
Procedure: (§4) Seeds of mono- and dicotyledonous weed plants were placed in plastic pots in sandy loam soil (doubly sown with in each case one species of mono- or dicotyledonous weed plants per pot), covered with soil and cultivated in a greenhouse under controlled growth conditions. 2 to 3 weeks after sowing, the test plants were treated at the one-leaf stage. […] After the test plants had been kept in the greenhouse under optimum growth conditions for about 3 weeks, the activity of the preparations was rated visually in comparison to untreated controls. For example, 100% activity = the plants have died, 0% activity = like control plants.

ORYZA [31] = test: Pre-emergence effects on crop plants (Table D3); details: crop plant; application rate 80 g/ha; visual grading after ca. 3 weeks
STEME [32] = test: Herbicidal post-emergence action (Table B9); type: in vivo, Stellaria media; details: application rate 1280 g/ha
Procedure: as §4

MATIN [33] = test: Herbicidal post-emergence action (Table B6); type: in vivo, Matricaria inodora; details: application rate 320 g/ha; rated visually after about 3 weeks
In short: as §3

POAAN [34] = test: Herbicidal pre-emergence action (Table A7); type: in vivo, Poa annua; details: application rate 1280 g/ha; visual grading after ca. 3 weeks
In short: as §2

STEME [35] = test: Herbicidal pre-emergence action (Table A6); type: in vivo, Stellaria media; details: application rate 320 g/ha; visual grading after ca. 3 weeks
In short: as §2

SETVI [36] = test: Herbicidal post-emergence action, section E (Table E8); type: in vivo, Setaria viridis; details: application rate 320 g/ha; assessed visually after ca. 3 weeks
Description: as §1

KCHSC [37] = test: Herbicidal pre-emergence action (Table A10); type: in vivo, Kochia scoparia; details: application rate 320 g/ha; visual grading after ca. 3 weeks
In short: as §2

MATIN [38] = test: Herbicidal pre-emergence action (Table A4); type: in vivo, Matricaria inodora; details: application rate 320 g/ha; visual grading after ca. 3 weeks
In short: as §2

VERPE [39] = test: Herbicidal pre-emergence action (Table A11); type: in vivo, Veronica persica; details: application rate 1280 g/ha; visual grading after ca. 3 weeks
In short: as §2

LOLRI [40] = test: Herbicidal post-emergence action (Table B5); type: in vivo, Lolium rigidum; details: application rate 1280 g/ha; rated visually after about 3 weeks
In short: as §3

O=C1N(Cc2c(F)cccc2F)CCCC12CCCN(Cc1c(F)cccc1F)C2=O (single isomer, unassigned; (+)) [I-083, (+)-2,8-bis[(2,6-difluorophenyl)methyl]-2,8-diazaspiro[5.5]undecane-1,7-dione]
pre-emergence activity against DIGSA (DIGSA): 90% | post-emergence activity against GLXMA (GLXMA [1]): 0% | pre-emergence activity against MATIN (MATIN [2]): 100% | pre-emergence activity against AMARE (AMARE [3]): 100% | post-emergence activity against BRSNW (BRSNW [4]): 0% | post-emergence activity against ORYZA (ORYZA [5]): 0% | pre-emergence activity against ALOMY (ALOMY [6]): 90% | pre-emergence activity against VIOTR (VIOTR): 100% | post-emergence activity against TRZAS (TRZAS [7]): 10% | pre-emergence activity against VERPE (VERPE [8]): 100% | pre-emergence activity against ABUTH (ABUTH [9]): 100% | post-emergence activity against ZEAMX (ZEAMX [10]): 0%

O=C1N(Cc2ccccc2)CCCC12CCCN(Cc1ccccc1Cl)C2=O (racemic) [I-066]
pre-emergence activity against LOLRI (LOLRI [11]; application rate 320 g/ha): 100% | post-emergence activity against POAAN (POAAN [12]; application rate 1280 g/ha): 90% | pre-emergence activity against ECHCG (ECHCG [13]): 80% | pre-emergence activity against ECHCG (ECHCG [14]): 100% | post-emergence activity against VERPE (VERPE [15]): 90% | pre-emergence activity against SETVI (SETVI [16]; application rate 1280 g/ha): 100% | pre-emergence activity against SETVI (SETVI [17]): 100% | pre-emergence activity against BRSNW (BRSNW [18]; application rate 320 g/ha): 0% | pre-emergence activity against AMARE (AMARE [3]): 90% | post-emergence activity against BRSNW (BRSNW [4]): 0% | pre-emergence activity against ZEAMX (ZEAMX [19]): 10% | post-emergence activity against ECHCG (ECHCG [20]): 80% | pre-emergence activity against TRZAS (TRZAS [21]): 0% | post-emergence activity against ORYZA (ORYZA [5]): 0% | pre-emergence activity against ALOMY (ALOMY [6]): 90% | pre-emergence activity against VIOTR (VIOTR): 80% | post-emergence activity against TRZAS (TRZAS [7]): 0% | pre-emergence activity against GLXMA (GLXMA [22]): 0% | post-emergence activity against ECHCG (ECHCG [23]): 90% | post-emergence activity against ZEAMX (ZEAMX [10]): 0%

O=C1N(Cc2cccs2)CCCC12CCCN(Cc1c(F)cccc1F)C2=O (racemic) [I-011]
pre-emergence activity against AMARE (AMARE [24]): 90% | pre-emergence activity against ABUTH (ABUTH [25]): 90% | pre-emergence activity against LOLRI (LOLRI [11]; application rate 1280 g/ha): 100% | post-emergence activity against POAAN (POAAN [12]; application rate 320 g/ha): 100% | pre-emergence activity against ALOMY (ALOMY [26]): 90% | pre-emergence activity against ECHCG (ECHCG [13]): 90% | pre-emergence activity against ECHCG (ECHCG [14]): 100% | post-emergence activity against ALOMY (ALOMY [27]): 80% | post-emergence activity against GLXMA (GLXMA [1]): 20% | pre-emergence activity against LOLRI (LOLRI [28]): 80% | post-emergence activity against AMARE (AMARE [29]): 90% | pre-emergence activity against MATIN (MATIN [2]): 80% | pre-emergence activity against SETVI (SETVI [16]; application rate 320 g/ha): 100% | pre-emergence activity against SETVI (SETVI [17]): 100% | pre-emergence activity against BRSNW (BRSNW [18]; application rate 80 g/ha): 20% | pre-emergence activity against AMARE (AMARE [3]): 90% | post-emergence activity against BRSNW (BRSNW [4]): 0% | post-emergence activity against KCHSC (KCHSC [30]): 90% | post-emergence activity against ECHCG (ECHCG [20]): 80% | pre-emergence activity against ORYZA (ORYZA [31]): 10% | post-emergence activity against STEME (STEME [32]): 90% | post-emergence activity against MATIN (MATIN [33]): 90% | pre-emergence activity against POAAN (POAAN [34]): 100% | post-emergence activity against ORYZA (ORYZA [5]): 20% | pre-emergence activity against ALOMY (ALOMY [6]): 90% | pre-emergence activity against STEME (STEME [35]): 90% | post-emergence activity against SETVI (SETVI [36]): 80% | pre-emergence activity against KCHSC (KCHSC [37]): 90% | pre-emergence activity against MATIN (MATIN [38]): 90% | pre-emergence activity against VERPE (VERPE [39]): 90% | pre-emergence activity against GLXMA (GLXMA [22]): 20% | post-emergence activity against ECHCG (ECHCG [23]): 90% | post-emergence activity against LOLRI (LOLRI [40]): 90% | post-emergence activity against ZEAMX (ZEAMX [10]): 10%

From patent EP4273147A1, “SUBSTITUTED SPIROLACTAMS, SALTS THEREOF AND THEIR USE AS HERBICIDALLY ACTIVE SUBSTANCES” (Bayer Aktiengesellschaft, priority 2022, dated 2023)
